Measurements as given in a melting point compilation (Tetko et al.; mined from patent text by program, amines drawn as free bases though some values may be those of a salt).
Residues, ends and D or L forms follow the SMILES beside them.

Compared with `CC(C)(C)NCCCOc1ccccc1C(=O)c1cccc2[nH]ccc12`, `O=C(Nc1cccc(C(=O)O)c1OCc1ccccc1Cl)c1ccccc1Cl` is higher in melting point: 130 °C for the first, 182 to 183 °C for the second.

First: O=c1[nH]c2ccc(S(=O)CCN3CCC(Cc4ccccc4F)CC3)cc2o1 (configuration not stated)
Second: O=C(CN1CCC(Cc2ccc(F)cc2)CC1)Nc1ccc2[nH]cnc2c1
The melting point of the first is lower: 179 to 181 °C for the first, 204 °C for the second.

First: CCc1ccc2oc(C(=O)Nc3ccc(-c4ccc(S(=O)(=O)NC(C(=O)OC)C(C)C)cc4)cc3)c(C)c2c1O (configuration not stated)
Second: CS(=O)(=O)c1ccc(C2=C(c3ccccc3)C(=NOCc3ccccc3)C2)cc1
The melting point of the first is lower: 75 to 80 °C for the first, 148 to 150 °C for the second.

Compared with `O=C(O)c1ccc(CN(C(=O)Nc2cc(C(F)(F)F)cc(C(F)(F)F)c2)c2ccc(C3CCCCC3)cc2)cc1`, `NS(=O)(=O)c1cccc(-c2cc(-c3nc(-c4ccc(C(F)(F)F)c(OCC(F)(F)F)c4)cc(C(F)(F)F)n3)ccn2)c1` is higher in melting point: 148 to 150 °C for the first, 211 °C for the second.

Compared with `CCc1noc(-c2cn(-c3cccc(OC)c3)cn2)n1`, `CCn1ncc2c3onc(-c4ccc(C)cc4)c3cnc21` is higher in melting point: 89 to 90 °C for the first, 173 to 175 °C for the second.

First: O=C(O)c1cc(F)ccc1S
Second: COC(=O)c1cc(O)ccc1N
The melting point of the first is higher: 185 °C for the first, 154 to 155 °C for the second.

First: CCN1c2ncc(C3(c4ccccc4)CO3)cc2C(=O)N(C)c2ccc(Cl)nc21 (configuration not stated)
Second: COc1cc(NC(=O)Nc2cccc3c2C2CC(OC)CCN2C3=O)nc2ccccc12 (configuration not stated)
The melting point of the first is lower: 105 to 107 °C for the first, greater than 260 °C for the second.

First: c1csc(N=C2SC[C@@H]3Cc4ccccc4CN23)c1
Second: O=C(OCc1ccccc1)C1=C(S(=O)c2ccccc2)CC2CC(=O)N12 (configuration not stated)
The melting point of the first is lower: 112 °C for the first, 129 to 131 °C for the second.

Compared with `O=C(Oc1ccccc1)N1CCC2(CC1)SC(c1ccc(Cl)cc1)c1ccccc12` (configuration not stated), `O=C(O)C1(c2cn3nc(NCCCN4CCC(OC(c5ccccc5)c5ccccc5)CC4)ccc3n2)CC1` is lower in melting point: 211 to 212 °C for the first, 115 to 117 °C for the second.

First: COc1ccc(C2=NN(C3CCN(S(=O)(=O)c4ccc(C)cc4)CC3)C(=O)C(C)(C)C2)cc1OC
Second: COc1ccc(C(=O)CCC(=O)c2ccc3ccccc3c2)cc1OC
The melting point of the first is higher: 161 to 164 °C for the first, 133 °C for the second.

Compared with `CSc1cnc2cc(-c3ccccc3)sc2c1O`, `CC(C)CNc1nc(-c2ccccc2)cn2ccnc12` is lower in melting point: greater than 325 °C for the first, 81 °C for the second.

First: CCC#CCOc1cc2c(cc1/C=C/C=C/C(C)=C/C(=O)O)C(C)(C)CCC2(C)C
Second: CC(CCC(=O)N(C)C)C1CC=C2C3=C(CCC21C)C1(C)CCC(O)C(C)(C)C1CC3 (configuration not stated)
The melting point of the first is higher: 208 to 209 °C for the first, 192 to 195 °C for the second.

First: CC(=O)Nc1ccc2oc(=O)[nH]c2c1
Second: CC(=O)Nc1ccc(C(=S)SCC(=O)O)cc1
The melting point of the first is higher: 295 to 300 °C for the first, 224 to 226 °C for the second.

First: CCC(CC)C1CC(=O)C(C(=O)NS(=O)(=O)c2ccc(Cl)cc2)C(=O)C1 (configuration not stated)
Second: CCOC(=O)CCCCCNS(=O)(=O)c1ccc(Cl)cc1
The melting point of the first is higher: 121 to 122 °C for the first, 102 to 105 °C for the second.

Compared with `COc1ccc(C(=O)O)c(OC(C)C)c1Br`, `COc1ccc(C(=O)O)cc1Oc1ccccc1` is higher in melting point: 109 to 110 °C for the first, 186 to 187 °C for the second.

First: CCOC(=O)c1cn(C)c2ccc(C(=O)c3c(C)cc4ccccn34)cc2c1=O
Second: CCCC(=O)c1cc2c(=O)c(C(=O)O)cn(CC)c2cc1C
The melting point of the first is higher: 232 °C for the first, 208 to 209 °C for the second.

Compared with `Oc1ccc(N=Cc2ccccc2)cc1`, `COc1ccc(C(O)CCCC(=O)Nc2ccccc2)cc1` (configuration not stated) is lower in melting point: 182 to 183 °C for the first, 96 to 96.5 °C for the second.

First: COc1cc(-n2c(=O)cc(C(F)(F)F)[nH]c2=O)ccc1C#N
Second: O=c1[nH]c(C(F)(F)F)c(Br)c(=O)n1-c1c(Cl)cc(Cl)cc1Cl
The melting point of the first is higher: greater than 230 °C for the first, 219 to 222 °C for the second.

First: CC1Cc2cc(S(=O)(=O)N3CCN(c4cccc(Cl)c4)CC3)ccc2N1C(=O)CCC(=O)O (configuration not stated)
Second: O=[N+]([O-])C(CN1CCN(c2ccccc2)CC1)c1ccccc1 (configuration not stated)
The melting point of the first is higher: 210 °C for the first, 76 °C for the second.

Compared with `COC(=O)c1cc(C(C)OC)c(C(F)(F)F)cc1N` (configuration not stated), `COc1cc2c(cc1OC)N(C(=O)c1ccc(-c3ccccc3C(F)(F)F)c(C)c1)Cc1cccn1C2` is higher in melting point: 112 to 114 °C for the first, 187 to 188 °C for the second.

First: COc1cc(CCCCCC2OC(=O)NC2=O)ccc1OCc1nc(-c2ccccc2)oc1C (configuration not stated)
Second: CCCCCCC(=NO)C(=O)c1ccc(OC)c2ccccc12
The melting point of the first is higher: 114 to 115 °C for the first, 92 to 93 °C for the second.

First: CCc1cc(C)nc2c(C)ccc([N+](=O)[O-])c12
Second: CCOC(=O)C1=C(NC(=O)Nc2ccc([N+](=O)[O-])c(C(=O)OCC)c2)CCC1
The melting point of the first is lower: 89 to 90 °C for the first, 152 to 155 °C for the second.

First: COC(=O)C(Cc1ccccc1)NC(=O)C(CC(=O)O)NC(=O)C(N)CO (stereo not drawn) (H-Ser-Asp-Phe-OMe; configuration not given here)
Second: CC(N)C(=O)NC(Cc1ccccc1)C(=O)NCC(=O)Oc1c(Cl)c(Cl)c(Cl)c(Cl)c1Cl (configuration not stated)
The melting point of the first is higher: 196 to 199 °C for the first, 180 to 183 °C for the second.

First: O=C(CCCN1CCCCC1)c1ccc2oc3ccc(C(=O)CCCN4CCCCC4)cc3c(=O)c2c1
Second: COc1cc(OC)c2c(C)c(CCN3CCN(c4ccccc4O)CC3)c(=O)oc2c1
The melting point of the first is lower: 93 to 95 °C for the first, 164 to 165 °C for the second.

First: CN(C)CC#CC1=CC[N+]([O-])=C(c2ccccc2)c2cc(Cl)ccc21
Second: N#CC(Cl)Cc1ccc(Cl)cc1C(=O)c1ccccc1Cl (configuration not stated)
The melting point of the first is higher: 121 to 123 °C for the first, 102 to 103 °C for the second.

Compared with `CCOC(=O)c1cnc2c(OC)csc2c1Nc1ccccc1C`, `CCOC(=O)c1cc(NCc2ccccc2)c(Nc2cccc(OC)c2)c(S(N)(=O)=O)c1` is higher in melting point: 141 to 143 °C for the first, 149 to 152 °C for the second.

Compared with `c1ccc(COc2ccc(Cn3cnc4c(-c5ccco5)ncnc43)cc2)cc1`, `COc1nc2c(N)nc3ccccc3c2n1Cc1ccccc1` is higher in melting point: 145 to 146 °C for the first, 240 to 242 °C for the second.

Compared with `CC(C)C=Cc1c(C(C)C)nc(C(C)C)c(CO)c1-c1ccc(F)cc1`, `CCC(CC)c1ccc(CO)c2nc(Oc3c(C)cc(Cl)cc3Cl)n(C)c12` is higher in melting point: 112 °C for the first, 141 to 143 °C for the second.

First: O=CCC(F)(F)CN1C(=O)c2ccccc2C1=O
Second: Cc1noc(NS(=O)(=O)c2ccccc2F)c1Br
The melting point of the first is lower: 76 to 78 °C for the first, 87 to 89 °C for the second.

Compared with `CCOC(=O)C(C#N)=Cc1cc(OC)c(OC)c2c1C=CCO2`, `CCOC(=O)C1=C(N)N=C(OCC)C(C(=O)OCC)C1c1cc([N+](=O)[O-])ccc1Cl` (configuration not stated) is higher in melting point: 104 to 108 °C for the first, 136 to 137 °C for the second.

Compared with `O=Cc1cc(Br)c(OCCBr)c(Br)c1`, `Cn1cc(Br)cc(Nc2ccn(CCO[Si](C)(C)C(C)(C)C)n2)c1=O` is higher in melting point: 84 to 85 °C for the first, 96 to 97 °C for the second.

First: CCOc1ccc(C)cc1NC(=O)Nc1ccc(N2CCN(C(=O)OC(C)(C)C)CC2)cc1
Second: Cc1cccc(NC(=O)NCC(=O)N2C(C(=O)OC(C)(C)C)CCCC2c2ccccc2)c1 (configuration not stated)
The melting point of the first is lower: 105 to 107 °C for the first, 123 °C for the second.

First: CS(=O)(=O)c1ccccc1C#N
Second: CN(Cc1ccccc1)c1nc2c(cc1C#N)C(=O)CC(C)(C)C2
The melting point of the first is higher: 105 to 106 °C for the first, 97 to 99 °C for the second.

First: CNC(=O)C(=O)CCCCCCc1csc(-c2ccc(Cl)cc2)n1
Second: CCOC(=O)C=CC(=O)c1ccc(Oc2ccc(Cl)cc2)cc1
The melting point of the first is higher: 77 to 81 °C for the first, 57 to 58 °C for the second.

Compared with `NC(c1ccccc1)C12CC(CN1Cc1ccccc1)C2` (configuration not stated), `O=C(O)COc1cccc2c1CCc1sc(S(=O)(=O)CCC(c3ccccc3)c3ccccc3)nc1-2` is higher in melting point: 63.5 to 64 °C for the first, 175 to 176 °C for the second.

Compared with `NC(=O)c1cc(NCc2c(F)c(F)c(C(F)(F)F)c(F)c2F)ccc1O`, `O=C(O)c1cn(C2CC2)c2c(F)c(N3CC(CNC(=O)C(F)(F)F)C3)c(F)cc2c1=O` is higher in melting point: 143 to 145 °C for the first, 145 to 150 °C for the second.

First: Nc1nc(O)c2cc(CN(CCF)c3ccc(C(=O)N[C@@H](CCC(=O)O)C(=O)O)cc3)ccc2n1
Second: Cc1nc2c(N)nc3ccccc3c2n1CCCCNS(=O)(=O)c1ccccc1
The melting point of the first is higher: greater than 350 °C for the first, 215 to 216 °C for the second.

First: CSc1ccc(C=C2C(=O)c3ccccc3CC2OCCn2ccnc2)cc1 (configuration not stated)
Second: CC1N=NC2=CN=C(c3ccccc3Cl)c3cc(C(=O)Cl)ccc3N21 (configuration not stated)
The melting point of the first is lower: 161 to 162 °C for the first, 295 to 297 °C for the second.

Compared with `Nc1cc(Cl)cc(Cl)c1C(=O)NCc1ccccc1F`, `CC(C(=O)O)c1ccc(-n2cc(Cl)cn2)c(Cl)c1` (configuration not stated) is lower in melting point: 154 to 158 °C for the first, 102 to 103 °C for the second.

First: OCC1OC(n2c(S)nc3c(NCc4ccccc4)ncnc32)C(O)C1O (configuration not stated)
Second: Cc1noc(C)c1COCCn1cnc2c(N)nc3ccccc3c21
The melting point of the first is lower: 145 to 148 °C for the first, 213 to 215 °C for the second.

Compared with `Oc1ccc2c(c1)COc1c-2cc2ccc(O)cc2c1-c1ccc(F)c(F)c1`, `CCC1c2cccn2-c2cc(F)c(F)cc2N1S(=O)(=O)c1ccc(O)cc1` (configuration not stated) is lower in melting point: 235 to 237 °C for the first, 177 to 179 °C for the second.

First: C=CCN1CC(=O)N(c2cc(C(=O)NCCCOc3ccc(C(C)(C)CC)cc3C(C)(C)CC)c(O)c3ccccc23)C1=S
Second: CC(C)(C)C(=O)c1cn(COCC[Si](C)(C)C)c2ncc(-c3ccc4c(ccn4Cc4ccccn4)c3)nc12
The melting point of the first is higher: 204 to 205 °C for the first, 194 to 196 °C for the second.

First: O=c1oc2c(c(O)c1Sc1nc3ccccc3o1)c(=O)n(Cc1ccccc1)c1ccccc21
Second: Cc1ccc(NS(=O)(=O)c2ccc(-c3cnc4[nH]c(CCC5CCCCC(=S)N5)nc4c3)cc2)c(F)c1 (configuration not stated)
The melting point of the first is lower: 196 to 198 °C for the first, 271 °C for the second.

First: C=Cc1cccc(N)c1
Second: COC(=O)CNc1cccc(Cl)c1
The melting point of the first is higher: 80 °C for the first, 75 to 76 °C for the second.

Compared with `CN(C=C(C#N)C#N)c1ccc(O)cc1`, `CCN(CC)c1ccc2ccc(=O)oc2c1` is lower in melting point: 187 to 189 °C for the first, 87.5 to 88 °C for the second.

Compared with `CCOCc1nc2c(N)nc3cccnc3c2n1CC1(O)CCCCC1`, `CCc1nc(C#N)c(N2CCN(c3ccccc3)CC2)nc1C` is lower in melting point: 171 to 173 °C for the first, 99 to 101 °C for the second.

Compared with `Nc1c(Cl)cc(C(O)CNCCCCCCOCCCCc2ncccc2O)cc1Cl` (configuration not stated), `C[C@@H]1Cc2ccsc2[C@H](C)N1CCCCNC(=O)c1ccc(NS(C)(=O)=O)cc1` (relative stereo) is higher in melting point: 95 to 96 °C for the first, 112 to 116 °C for the second.

Compared with `CCC(CC)Nc1c([N+](=O)[O-])cc(C#N)c(COC)c1[N+](=O)[O-]`, `COc1ccc2c(c1)Nc1[nH]cnc(=O)c1C2` is higher in melting point: 46 to 49 °C for the first, greater than 300 °C for the second.

`CN1CCC(=C2c3ccc(F)cc3CCn3ccnc32)CC1` showed a melting point of 152 °C.
